Measured values: patent publication US9458120B2, “Phenoxypropanol derivative and pharmaceutical composition including the same” (KOREA INSTITUTE OF SCIENCE AND TECHNOLOGY, priority 2011, dated 2016)

Tests used:
[1] = target: α1G T-type calcium channel (Homo sapiens, UniProt O43497); test: Assay for T-type calcium channel inhibition activity (FDSS6000 calcium imaging, KCl activation); format: cell-based; settings: 75 s pre-treatment then KCl 75 mM, HEK293 cells expressing α1G T-type calcium channel and Kir2.1
Sequence of α1G T-type calcium channel (O43497 whole entry): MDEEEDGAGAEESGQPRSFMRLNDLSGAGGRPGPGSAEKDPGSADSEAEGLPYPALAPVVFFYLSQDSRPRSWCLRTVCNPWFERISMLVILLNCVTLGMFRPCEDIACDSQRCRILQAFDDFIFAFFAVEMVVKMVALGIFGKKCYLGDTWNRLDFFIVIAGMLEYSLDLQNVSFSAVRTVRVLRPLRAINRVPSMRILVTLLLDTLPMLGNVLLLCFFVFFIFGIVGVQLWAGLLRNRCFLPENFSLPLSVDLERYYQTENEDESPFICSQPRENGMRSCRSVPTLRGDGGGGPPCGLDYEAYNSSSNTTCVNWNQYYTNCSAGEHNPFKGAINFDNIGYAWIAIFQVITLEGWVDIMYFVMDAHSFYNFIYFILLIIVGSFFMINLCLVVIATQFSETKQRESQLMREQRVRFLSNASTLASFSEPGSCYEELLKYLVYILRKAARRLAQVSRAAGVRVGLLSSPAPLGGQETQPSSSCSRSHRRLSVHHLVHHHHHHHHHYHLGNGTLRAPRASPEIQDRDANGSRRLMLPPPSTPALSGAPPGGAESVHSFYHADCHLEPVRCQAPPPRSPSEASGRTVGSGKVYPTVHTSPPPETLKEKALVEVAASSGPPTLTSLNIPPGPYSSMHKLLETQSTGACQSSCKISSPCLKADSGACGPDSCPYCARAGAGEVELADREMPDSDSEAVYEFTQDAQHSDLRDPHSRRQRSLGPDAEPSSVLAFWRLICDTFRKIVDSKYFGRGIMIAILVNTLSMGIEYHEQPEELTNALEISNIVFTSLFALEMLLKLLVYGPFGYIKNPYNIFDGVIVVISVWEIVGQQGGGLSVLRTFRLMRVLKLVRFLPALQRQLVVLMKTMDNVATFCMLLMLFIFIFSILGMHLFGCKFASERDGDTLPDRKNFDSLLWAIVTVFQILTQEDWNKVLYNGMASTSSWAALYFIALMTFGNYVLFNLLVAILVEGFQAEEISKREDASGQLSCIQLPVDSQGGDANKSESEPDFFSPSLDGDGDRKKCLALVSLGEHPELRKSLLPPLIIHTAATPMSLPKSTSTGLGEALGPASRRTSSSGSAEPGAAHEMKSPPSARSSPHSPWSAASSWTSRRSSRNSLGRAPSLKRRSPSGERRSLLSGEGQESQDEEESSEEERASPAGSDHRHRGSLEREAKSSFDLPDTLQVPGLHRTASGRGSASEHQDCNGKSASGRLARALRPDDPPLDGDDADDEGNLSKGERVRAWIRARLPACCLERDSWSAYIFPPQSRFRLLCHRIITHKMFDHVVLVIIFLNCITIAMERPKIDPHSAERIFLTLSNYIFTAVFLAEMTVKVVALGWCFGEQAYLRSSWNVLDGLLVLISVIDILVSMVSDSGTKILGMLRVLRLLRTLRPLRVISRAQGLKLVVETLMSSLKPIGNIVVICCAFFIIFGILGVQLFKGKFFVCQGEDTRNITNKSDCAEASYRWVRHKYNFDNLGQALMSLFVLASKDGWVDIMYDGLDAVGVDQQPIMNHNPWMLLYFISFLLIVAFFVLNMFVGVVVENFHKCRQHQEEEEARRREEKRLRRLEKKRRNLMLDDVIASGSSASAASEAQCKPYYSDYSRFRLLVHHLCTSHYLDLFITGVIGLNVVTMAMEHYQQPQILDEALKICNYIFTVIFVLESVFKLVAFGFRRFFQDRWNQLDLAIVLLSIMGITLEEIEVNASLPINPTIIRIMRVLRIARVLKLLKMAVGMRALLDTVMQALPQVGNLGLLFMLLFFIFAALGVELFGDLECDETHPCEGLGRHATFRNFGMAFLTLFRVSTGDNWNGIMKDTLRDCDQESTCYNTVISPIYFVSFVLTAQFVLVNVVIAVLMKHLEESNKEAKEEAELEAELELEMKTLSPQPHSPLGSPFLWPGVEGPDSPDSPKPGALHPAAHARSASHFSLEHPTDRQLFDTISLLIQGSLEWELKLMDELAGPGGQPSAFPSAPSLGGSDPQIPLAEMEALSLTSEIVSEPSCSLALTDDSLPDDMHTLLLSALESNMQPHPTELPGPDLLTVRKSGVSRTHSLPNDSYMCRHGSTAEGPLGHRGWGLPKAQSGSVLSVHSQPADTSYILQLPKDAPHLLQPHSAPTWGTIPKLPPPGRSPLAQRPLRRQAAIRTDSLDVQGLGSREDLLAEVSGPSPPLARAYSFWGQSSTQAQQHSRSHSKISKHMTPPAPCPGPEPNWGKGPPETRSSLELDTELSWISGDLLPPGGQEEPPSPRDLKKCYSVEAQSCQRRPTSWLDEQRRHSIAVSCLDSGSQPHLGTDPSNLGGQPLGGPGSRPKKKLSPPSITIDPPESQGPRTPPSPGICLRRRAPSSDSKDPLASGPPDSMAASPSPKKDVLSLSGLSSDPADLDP
Description: At 12-24 hours before the assay for T-type calcium channel activity, cells of HEK293 cell line (α1G cell line: KCTC 10519BP, GenBank, Korea Research Institute of Bioscience and Biotechnology) which stably express α1G T-type calcium channel and Kir2.1, were sub-cultured in a poly-L-lysine (0.05 mg/ml) treated 96-well plate with the density of 4×10^4 per a well using a 96-well cell dispenser (Titertek). On the day of assay, the 96-well plate to which the cells were attached were washed three times with a HEPES buffer solution (unit mM: 150 NaCl, 5 KCl, 1 MgCl2, 2 CaCl2, 10 HEPES, 10 glucose, pH 7.4) using a 96-well plate automatic washing device (Bio Tek), and then reacted with a HEPES buffer solution containing 5 μM fluo-3/AM and 0.001% (w/v) Pluronic F-127 at room temperature for 1 hour, to label with fluorescent dye, and then further washed twice with the HEPES buffer solution. Thereafter, at 10 minutes before the measurement using a FDSS6000 device, a washing with a HEPES buffer solution containing 10 mM CaCl2 was conducted once more, and the final volume was adjusted to 81 μl. Besides the above 96-well plate containing the cells, additional two 96-well drug plates were provided, in which the 96-well plates contained KCl (final concentration: 75 mM) for activating T-type calcium channel and a blocker drug, respectively.
Since most of cell-based HTS (High throughput screening) devices are equipped with a liquid application system for drug injection, but have no liquid sucking system, the blocker drug to be tested and KCl were respectively provided at the five-times higher concentration in 10 mM CaCl2 HEPES buffer solution at the amount of 27 μl, diluted five-times at the final cell plate volume of 135 μl, and then used in this test. In this Experimental Example, therefore, FDSS6000 (Hamamatsu Photonics) was used as an alternative to HTS device.
Specific FDSS6000 measurement conditions are as follows: After recording the reference value of 20 seconds, the change of intracellular calcium concentration which induced by pre-treatment of the drug (the prepared […]) for 75 seconds followed by administration of KCl was measured, in which the percentage (%) inhibition effect of the test drug was determined, through estimating the area of ratio value of 340/380 in the control without treatment of the test drug as 100%. As a reference drug, 10 μM of mibefradil was always used.
For accurate calcium-imagination, the light sources of 4 xenon lamps in FDSS6000 were radiated to make the cells exposed selectively to the excitation wavelength (340 nm and 380 nm) by computer-controlled filter wheel. Data was obtained at interval of each 1.23 second. The emitter fluorescence light inflow through a 515 nm long-pass filter was obtained as an average 340/380 ratio value for each well in the 96-wells by a cooled CCD camera and digital fluorescence analyzer in the device. All image data and analysis were obtained by using a FDSS6000-exclusive program provided by Hamamatsu Photonics, as described above.

[2] = target: T1, TREK-1 channel (Rattus norvegicus, UniProt Q920B6); test: Assay for TREK channel inhibition activity (whole cell patch clamp recording, COS7 cell transfected with GFP-rTREK-1); format: cell-based; settings: COS7 cells, GFP-rTREK-1, whole-cell patch clamp; for inhibition at 10 µM: COS-7, Table 2, read-out: block % at 10 μM; for inhibition at 101 µM: COS-7, Table 3 (value ± spread), 101 μM [sic], read-out: block % at 101 μM
T1 construct: expressed in transfected cells; host or cells: COS7 (Korean Cell Line Bank), transient transfection with Effectene
T1 sequence (Q920B6 1-426): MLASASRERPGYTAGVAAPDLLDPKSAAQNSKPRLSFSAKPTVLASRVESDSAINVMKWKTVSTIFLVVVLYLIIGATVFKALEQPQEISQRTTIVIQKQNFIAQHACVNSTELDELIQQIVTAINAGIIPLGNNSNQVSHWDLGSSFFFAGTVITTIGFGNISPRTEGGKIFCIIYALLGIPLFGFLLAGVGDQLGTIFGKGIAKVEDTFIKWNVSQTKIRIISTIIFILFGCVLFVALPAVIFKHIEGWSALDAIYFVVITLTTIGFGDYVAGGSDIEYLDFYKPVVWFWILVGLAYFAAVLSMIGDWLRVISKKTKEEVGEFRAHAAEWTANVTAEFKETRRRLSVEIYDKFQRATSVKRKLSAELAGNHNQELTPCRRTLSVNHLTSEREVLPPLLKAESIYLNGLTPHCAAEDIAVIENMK
Description: The inhibition activity of the compound of the present invention against TREK-1 channel was measured by measuring the physiological activity by whole cell patch clamp recording.
COS7 cell (obtained from Korean Cell Line Bank (KCLB)) was transfected with GFP-rTREK-1 gene (accession number: AY727922) using an Effectene transfection reagent (Qiagen), and cultured for 24 hours in an incubator at 37° C. As a culture medium, Dulbecco's modified Eagle's medium (DMEM, GIBCO products from Invitrogen) containing 10% by weight of fetal bovine serum (FBS) and 1% by weight of penicillin/streptomycin (5000 unit/ml) was used. The cells thus prepared were adhered on a cover glass, which was placed on a chamber, and then a recording solution (150 mM NaCl, 10 mM HEPES, 10 mM KCl, 2 mM CaCl2, 5.5 mM D-Glucose, all reagents were purchased from Sigma) was applied. A glass microelectrode was filled with an intracellular solution prepared with the composition of 150 mM KCl, 5 mM EGTA, 10 mM HEPES, 0.5 mM CaCl2, 1 mM MgCl2, 4 mM Mg-ATP, and 0.3 mM Na-GTP (all reagents were purchased from Sigma), followed by whole-cell patch clamp recording. The voltage was fixed at −70 mV using a Digidata 1322A data acquisition system (Molecular Devices) and an Axopatch 200A amplifier (Axon Instruments), and the current generated by applying a voltage ramp from −100 mV to +100 mV for 1 second was measured using a Clampex9.2 program. A difference between the current values measured at +100 mV and −100 mV was defined as a current in the above experiment. The currents before and after blocker treatment were measured so as to determine the inhibition activity.
Block %=100−(current after blocker treatment/current before blocker treatment)*100

| inhibition [1] | inhibition at 10 µM [2] | inhibition at 101 µM [2] | block % at 100 μM ([2]; Table 2) | block % at 100 μM ([2]; Table 3 (value ± spread)) | SMILES |
| --- | --- | --- | --- | --- | --- |
| 77.4% | 64.7% | – | – | – | CC(C)Cc1cc(CNC(=O)CN2CCN(C[C@@H](O)COc3ccc(F)cc3)CC2)nn1-c1ccccc1 [KKRE10213, (R)-2-(4-(3-(4-Fluorophenoxy)-2-hydroxypropyl)piperazin-1-yl)-N-((5-isobutyl-1-phenyl-1H-pyrazol-3-yl)methyl)acetamide] |
| 0.31% | – | 4.13 ± 4.43% | – | – | O[C@@H](COc1ccc(F)cc1)CN1CCC(N2CCCC2)CC1 [KKRE10160, (R)-1-(4-fluorophenoxy)-3-(4-(pyrrolidin-1-yl)piperidin-1-yl)propan-2-ol] |
| 42% | – | – | – | – | O=C(CN1CCN(CC(O)COc2ccc(C(F)(F)F)cc2)CC1)NC1CCCCC1 (stereo not drawn) [KKRE10177, N-cyclohexyl-2-(4-(2-hydroxy-3-(4-(trifluoromethyl)phenoxy)propyl)piperazin-1-yl)acetamide] |
| 74.1% | – | 57 ± 6.08% | – | – | CC(C)Cc1cc(CNC(=O)CN2CCN(C[C@H](O)COc3ccc(C(F)(F)F)cc3)CC2)nn1-c1ccc(F)cc1 [KKRE10219, (S)-N-((1-(4-fluorophenyl)-5-isobutyl-1H-pyrazol-3-yl)methyl)-2-(4-(2-hydroxy-3-(4-(trifluoromethyl)phenoxy)propyl)piperazin-1-yl)acetamide] |
| 77.5% | – | 37.5 ± 5.31% | – | – | CC(C)Cc1cc(CNC(=O)CN2CCN(C[C@H](O)COc3ccc(F)cc3)CC2)nn1-c1ccccc1 [KKRE10214, (S)-2-(4-(3-(4-Fluorophenoxy)-2-hydroxypropyl)piperazin-1-yl)-N-((5-isobutyl-1-phenyl-1H-pyrazol-3-yl)methyl)acetamide] |
| 9.33% | – | 29.6 ± 3.71% | – | – | O[C@H](COc1ccc(F)cc1)CN1CCC(N2CCOCC2)CC1 [KKRE10157, (S)-1-(4-fluorophenoxy)-3-(4-morpholinopiperidin-1-yl)propan-2-ol] |
| – | – | 84.2 ± 2.22% | – | – | CC(C)Cc1cc(CN2CCN(C[C@H](O)COc3ccc(C(F)(F)F)cc3)CC2)nn1-c1ccccc1 [KKRE10234] |
| 35% | – | – | – | – | O[C@H](COc1ccc(C(F)(F)F)cc1)CN1CCC(F)(F)CC1 [KKRE10190, (S)-1-(4,4-difluoropiperidin-1-yl)-3-(4-(trifluoromethyl)phenoxy)propan-2-ol] |
| – | – | 21.6 ± 4.63% | – | – | CC(C)Cc1cc(CN2CCN(C[C@@H](O)COc3ccc(F)cc3)CC2)nn1-c1ccccc1 [KKRE10233] |
| 8.45% | – | – | – | – | O[C@H](COc1ccc(C(F)(F)F)cc1)CN1CCC(N2CCCC2)CC1 [KKRE10189, (S)-1-(4-(pyrrolidin-1-yl)piperidin-1-yl)-3-(4-(trifluoromethyl)phenoxy)propan-2-ol] |
| 74.3% | – | – | – | – | O=C(CN1CCN(C[C@@H](O)COc2ccc(C(F)(F)F)cc2)CC1)NCc1cc(C2CC2)n(-c2ccccc2)n1 [KKRE10212, (R)-N-((5-cyclopropyl-1-phenyl-1H-pyrazol-3-yl)methyl)-2-(4-(2-hydroxy-3-(4-(trifluoromethyl)phenoxy)propyl)piperazin-1-yl)acetamide] |
| – | 19.8% | 19.8 ± 9.57% | 49.71% | 49.71 ± 5.83% | CC[C@H]1CN2CC[C@H]1C[C@H]2[C@H](O)c1ccnc2ccc(OC)cc12 [hydroquinine, reference compound] |
| – | 53% | 53 ± 5.98% | – | – | O=C(CN1CCN(C[C@H](O)COc2ccccc2)CC1)NCc1ccc(C(F)(F)F)cc1 [KKRE10207, (S)-2-(4-(2-hydroxy-3-phenoxypropyl)piperazin-1-yl)-N-(4-(trifluoromethyl)benzyl)acetamide] |
| – | – | – | 33.46% | 33.46 ± 8.09% | C=C[C@H]1C[N@@]2CC[C@H]1C[C@@H]2[C@@H](O)c1ccnc2ccc(OC)cc12 [quinidine, reference compound] |
| – | – | 21.7 ± 3.13% | – | – | CC(C)Cc1cc(CN2CCN(C[C@H](O)COc3ccc(F)cc3)CC2)nn1-c1ccccc1 [KKRE10232] |
| – | 26.4% | 26.4 ± 12.2% | – | – | Cc1ccc(CNC(=O)CN2CCN(C[C@H](O)COc3ccccc3)CC2)cc1 [KKRE10205, (S)-2-(4-(2-hydroxy-3-phenoxypropyl)piperazin-1-yl)-N-(4-methylbenzyl)acetamide] |
| – | 35.2% | 35.2 ± 4.89% | – | – | O=C(CN1CCN(C[C@@H](O)COc2ccc(C(F)(F)F)cc2)CC1)Nc1ccc(F)cc1 [KKRE10145] |
| – | 17% | 17 ± 6.93% | 50.00% | 50.00 ± 5.72% | C=C[C@H]1C[N@@]2CC[C@H]1C[C@H]2[C@H](O)c1ccnc2ccc(OC)cc12 [quinine, reference compound] |
| – | 13% | 13 ± 10.1% | 71.47% | 71.47 ± 3.30% | Cc1ccc(OC[C@@H](O)CN2CCN(Cc3c(F)cccc3Cl)CC2)cc1 [KKRE10138] |
| – | – | 48.5 ± 4.26% | – | – | CC(C)Cc1cc(CN2CCN(C[C@@H](O)COc3ccc(C(F)(F)F)cc3)CC2)nn1-c1ccccc1 [KKRE10231] |
| – | – | 44 ± 7.7% | – | – | O=C(CN1CCN(C[C@@H](O)COc2ccccc2)CC1)NCc1ccc(C(F)(F)F)cc1 [KKRE10206, (R)-2-(4-(2-hydroxy-3-phenoxypropyl)piperazin-1-yl)-N-(4-(trifluoromethyl)benzyl)acetamide] |

| SMILES | inhibition [1] | inhibition at 10 µM [2] | inhibition at 101 µM [2] | block % at 100 μM ([2]; Table 2) | block % at 100 μM ([2]; Table 3 (value ± spread)) |
| --- | --- | --- | --- | --- | --- |
| COc1cccc(C2CCN(C[C@@H](O)COc3ccc(F)cc3)CC2)c1 [KKRE10162, (R)-1-(4-fluorophenoxy)-3-(4-(3-methoxyphenyl)piperidin-1-yl)propan-2-ol] | – | 52.5% | 52.5 ± 6.76% | – | – |
| O[C@H](COc1ccc(C(F)(F)F)cc1)CN1CCC(O)(c2ccccc2)CC1 [KKRE10191, (S)-1-(2-hydroxy-3-(4-(trifluoromethyl)phenoxy)propyl)-4-phenylpiperidin-4-ol] | 16.8% | – | – | – | – |
